US20240392302A1, “METHOD FOR DETECTING AND QUANTIFYING RNA” (FLUORESCENCE DIAGNOSIS (SHANGHAI) BIOTECH COMPANY LTD., priority 2021, published 2024)

Test system: F30-N16-1 RNA aptamer molecules
Assay: Binding of F30-N16-1 RNA aptamer molecules with different fluorescent molecules (fluorescence spectrum, activation multiple)
Type: biochemical
Settings: for Maximum emission peak (nm) / Maximum excitation peak (nm): complex with F30-N16-1; for Activation Multiple: fluorophore with F30-N16-1
Method: Nucleic acid aptamer molecules of N16 or N16 mutants were prepared by using the commonly-used experimental method (I), 2.5 μM of nucleic acid aptamer molecules and 0.5 μM of fluorophore molecules were incubated in a detection buffer (40 mM of HEPES, pH 7.4, 125 mM of KCl, 5 mM of MgCl2, 5% DMSO), and the maximum excitation peak and the maximum emission peak of the fluorescence of the nucleic acid aptamer-fluorophore molecular complex were detected with Synergy Neo2 multifunctional enzyme-labeler. Synergy Neo2 multifunctional enzyme-labeler was used again to detect fluorescence intensity of the nucleic acid aptamer-fluorophore molecular complex under its maximum excitation and emission conditions, the control sample ([…] of fluorophore molecules without nucleic acid aptamer) was also measured under the same conditions, and the ratio of fluorescence intensity was calculated. For example, as for fluorescence of the complex formed by 2.5 μM of N16-1 nucleic acid aptamer and 0.5 μM of I-5-14 fluorophore molecules, the maximum excitation peak is 512 nm and the maximum emission peak is 574 nm. It was detected by the Synergy Neo2 multifunctional enzyme-labeler that the fluorescence intensity of the complex at an excitation condition of 512±10 nm and an emission condition of 574 nm±10 nm was 49,088, while the fluorescence intensity of the control (0.5 μM of I-5-14 fluorophore molecules) under the same detection conditions was 399, so the activation multiple of N16-1 nucleic acid aptamer to I-5-14 fluorophore molecules was 123.
F30-N16-1 RNA aptamer molecules were prepared by using the commonly-used experimental method (I), and were used for detecting basic properties, including fluorescence spectrum and fluorescence activation multiple, of the binding of I-5-14 analogues with N16.

| SMILES | Maximum emission peak (nm) | Maximum excitation peak (nm) | Activation Multiple |
| --- | --- | --- | --- |
| CN(C)c1ccc(/C=C2\OC(=O)N(N)C2=O)cc1 [I-5-19] | 499 nm | 397 nm | 18 |
| CN(CCO)c1ccc(-c2ccc(/C=C3\SC(=S)NC3=O)s2)cc1 [I-5-61] | 677 nm | 483 nm | 6 |
| CN(C)c1ccc2c(c1)C(C)(C)c1cc(/C=C3\SC(=O)NC3=O)ccc1-2 [I-5-74] | 691 nm | 635 nm | 14 |
| CN1C(=O)/C(=C/c2cc3sc(N(CCO)CCO)cc3s2)SC1=S [I-5-59] | 655 nm | 581 nm | 12 |
| CC1=CC(C)(C)N(C)c2ccc(/C=C3\SC(=S)NC3=S)cc21 [I-5-43] | 665 nm | 572 nm | 17 |
| CN1CCc2cc(/C=C3\NC(=S)NC3=O)c(Cl)cc21 [I-5-30] | 562 nm | 497 nm | 11 |
| CN(C)c1ccc(/C=C2\SC(=O)NC2=O)cc1 [I-5-23] | 515 nm | 433 nm | 156 |
| CN1C(=O)/C(=C/c2ccc(-c3ccc(N(C)CCO)s3)cc2)NC1=S [I-5-63] | 673 nm | 521 nm | 6 |
| CN1CCSc2cc(/C=C3\SC(=O)NC3=O)ccc21 [I-5-33] | 553 nm | 442 nm | 154 |
| CN(C)c1ccc(/C=C2\SC(=O)NC2=S)cc1 [I-5-21] | 605 nm | 569 nm | 24 |
| CN1CCOc2cc(/C=C3\SC(=S)N(CCC(=O)O)C3=S)ccc21 [I-5-38] | 647 nm | 545 nm | 7 |
| CN1C(=O)/C(=C/c2cc3c(s2)-c2sc(N(CCO)CCO)cc2C3(C)C)SC1=S [I-5-84] | 737 nm | 685 nm | 6 |
| CC1=CC(C)(C)N(C)c2ccc(/C=C3\SC(=S)NC3=O)cc21 [I-5-41] | 612 nm | 517 nm | 85 |
| CN1C(=O)S/C(=C\c2ccc3c(c2)SCCN3C)C1=S [I-5-32] | 625 nm | 519 nm | 15 |
| CN1C(=O)/C(=C/c2ccc3c(c2)SCCN3C)SC1=S [I-5-31] | 610 nm | 503 nm | 125 |
| CN(CCO)c1cc2c(s1)-c1sc(/C=C3\NC(=S)N(N)C3=O)cc1C2(C)C [I-5-81] | 713 nm | 635 nm | 7 |
| O=C1NC(=S)N/C1=C\c1cc2c3c(c1)CCCN3CCC2 [I-5-50] | 597 nm | 512 nm | 7 |
| CN(CCO)c1ccc(/C=C2\SC(=O)NC2=S)cc1 [I-5-15] | 598 nm | 567 nm | 31 |
| CCN1C(=O)S/C(=C\c2ccc3c(c2)C(C)=CC(C)(C)N3C)C1=O [I-5-44] | 549 nm | 459 nm | 21 |
| Cc1cc(N(C)CCNC(=O)CCOCCOCCO)ccc1/C=C1\SC(=O)NC1=S [I-5-27] | 603 nm | 565 nm | 11 |

| SMILES | Maximum emission peak (nm) | Maximum excitation peak (nm) | Activation Multiple |
| --- | --- | --- | --- |
| CN1C(=O)/C(=C/c2cc3ccc(N(CCO)CCO)cc3s2)SC1=S [I-5-68] | 663 nm | 536 nm | 9 |
| CN1C(=O)O/C(=C\c2ccc(N(C)C)s2)C1=O [I-5-7] | 504 nm | 465 nm | 24 |
| CN(C)c1ccc(/C=C2\SC(=O)NC2=O)s1 [I-5-11] | 524 nm | 493 nm | 9 |
| CN(CCO)c1ccc(/C=C2\SC(=S)NC2=S)s1 [I-5-4] | 638 nm | 625 nm | 47 |
| Nc1ccc2nc(/C=C3\SC(=S)NC3=S)sc2c1 [I-5-72] | 721 nm | 636 nm | 14 |
| CN(CCO)c1ccc2c(c1)C(C)(C)c1cc(/C=C3\NC(=S)NC3=O)ccc1-2 [I-5-76] | 774 nm | 724 nm | 9 |
| CCN1C(=O)/C(=C/c2ccc3c(c2)SCCN3C)NC1=S [I-5-35] | 585 nm | 487 nm | 10 |
| CN(CCO)c1ccc2c(c1)C(C)(C)c1cc(/C=C3\SC(=S)NC3=O)sc1-2 [I-5-79] | 733 nm | 682 nm | 11 |
| CN(CCO)c1ccc2c(c1)C(C)(C)c1cc(/C=C3\SC(=S)NC3=S)sc1-2 [I-5-78] | 681 nm | 582 nm | 8 |
| CN(C)c1ccc(/C=C2\SC(=S)NC2=S)cc1 [I-5-22] | 657 nm | 613 nm | 126 |
| CN1C(=O)/C(=C/c2cc3c(s2)-c2ccc(N(CCO)CCO)cc2C3(C)C)SC1=S [I-5-80] | 743 nm | 686 nm | 7 |
| CN(CCO)c1ccc2c(c1)C(C)(C)c1cc(/C=C3\NC(=S)NC3=O)sc1-2 [I-5-77] | 783 nm | 736 nm | 5 |
| CN1C(=O)S/C(=C\c2cc3c4c(c2)CCCN4CCC3)C1=S [I-5-46] | 633 nm | 542 nm | 7 |
| CN(C)c1ccc(/C=C2\SC(=S)NC2=S)s1 [I-5-10] | 642 nm | 626 nm | 11 |
| CN1C(=O)/C(=C/c2ccc(N(C)CCO)cc2)NC1=S [I-5-18] | 545 nm | 473 nm | 57 |
| CN(CCO)c1ccc(/C=C2\OC(=O)N(CCC(=O)O)C2=O)c(F)c1 [I-5-25] | 502 nm | 403 nm | 6 |
| CN1CCc2cc(/C=C3\SC(=O)NC3=O)ccc21 [I-5-29] | 525 nm | 453 nm | 14 |
| CN(CCO)c1ccc(/C=C2\SC(=S)N(N)C2=S)cc1 [I-5-16] | 648 nm | 615 nm | 11 |
| CN(CCO)c1cc2sc(/C=C3\SC(=S)NC3=S)cc2s1 [I-5-58] | 725 nm | 692 nm | 1422 |
| CN(C)c1ccc2cc(/C=C3\NC(=S)NC3=O)sc2c1 [I-5-67] | 652 nm | 516 nm | 7 |
